Assay results published in US7713998B2, “Nitrogenous heterocyclic compound and pharmaceutical use thereof” (Ono Pharmaceutical Co., Ltd., priority 2004, dated 2010).

Legend:
[1] = system: TNF-α production induced by lipopolysaccharide (LPS) in rats; assay: Rat cytokine-production model; type: in vivo
Description: (3) Rat Cytokine-production Model
The in vivo effect of the compound of the present invention was studied on TNF-α production induced by lipopolysaccharide (LPS) in rats.
A vehicle containing the compound of the present invention was orally administered to male Lew mice (Charles River Japan, Inc.), and after 2 hours, lipopolysaccharide (LPS, 055:B5, Difco) was intravenously administered at the dose of 10 μg/kg (5 animals/group). Only a vehicle was orally administered to a control group (5 animals). Ninety minutes after the LPS treatment, heparinized blood collection was performed via the abdominal cava vein under anesthesia with ether, and blood plasma was obtained by centrifugation (12,000 rpm, 3 minutes, 4° C.). The obtained blood plasma sample was stored at −80° C. until it was used. TNF-α in the blood plasma was measured using an ELISA kit from Genzyme/Techne (#10516).
The inhibitory activity of the compound of the present invention against TNF-α production was calculated as an inhibition rate (%) according to the following equation: Inhibition rate (%)={(AC−AX)/AC}×100
wherein AC is a measured value in case where no test compound was administered under LPS induction, and
AX is a measured value in case where a test compound was administered under LPS induction.

[2] = system: TNF-α production stimulated by lipopolysaccharide (LPS) in THP-1; assay: Inhibitory activity against TNF-α production using human cell lines (THP-1, LPS); type: cell-based; settings: 1.5 h, THP-1 cells, 90 minutes, TNF-α in supernatant by ELISA
Description: (2) Inhibitory Activity Against TNF-α Production Using Human Cell Lines
Using THP-1 which is a human monocytic cell line, the inhibitory effect of the compound of the present invention against TNF-α production stimulated by lipopolysaccharide (LPS) was studied.
Each 50 μL of lipopolysaccharide (LPS; Difco #3120-25-0) prepared to a concentration of 40 ng/mL using RPMI-1640 medium containing 10% fetal calf serum (hereinafter abbreviated to RPMI-1640) and RPMI-1640 containing the compound of the present invention was added to a 96-well plate for cell culture. One hundred μL of the cell suspension of THP-1 (Dainippon Pharmaceutical Co., Ltd, #06-202) prepared to a cell density of 2×10^6 cells/mL using RPMI-1640 was added and cultured for 90 minutes at 37° C. in an incubator (5% CO2, 95% air). After completion of the reaction, the culture medium supernatant was recovered and the amount of produced TNF-α was measured using an ELISA kit (Invitrogen, #850090192).
The inhibitory activity against TNF-α production, which is the effect of the compound of the present invention, was calculated as an inhibition rate (%) by the following equation: Inhibition rate (%)={(AC−AX)/(AC−AB)}×100
wherein AB is a measured value without LPS induction;
AC is a measured value with LPS induction in the absence of a test compound; and
AX is a measured value with LPS induction in the presence of a test compound. […]

[3] = biological target: recombinant human p38α MAP kinase (Homo sapiens, UniProt Q16539); assay: Study on p38α MAP kinase inhibitory activity (ATF2 phosphorylation, Alpha Screen); type: biochemical; settings: phosphorylation of biotinylated ATF2 by recombinant human p38α MAP kinase, 30° C. 30 minutes
Description: (1) Study on p38α Map Kinase Inhibitory Activity
Using activating transcription factor −2 (hereinafter abbreviated to ATF2) which is a substrate for p38α MAP kinase, the inhibitory action of the compounds of the present invention was investigated on the phosphorylation by a recombinant human p38α MAP kinase.
A kinase buffer (25 mM Tris-HCl (pH 7.5), 5 mM β-glycerophosphate, 2 mM dithiothreitol, 0.1 mM Na3VO4, 10 mM MgCl2) containing a recombinant human p38a MAP kinase was added to a 384-well plate (5 μL)(6.25 ng protein/well) for fluorescence measurement. After addition of a kinase buffer (5 μL) containing the compound of the present invention, the resulting mixture was incubated at room temperature for 20 minutes. […] The amount of a complex of the phosphorylated ATF2 and anti-phosphorylated ATF2 antibody produced by the reaction was measured using an Alpha Screen™ Rabbit Detection kit (Packard #6760607).
The p38α MAP kinase inhibitory activity, which is the effect of the compound of the present invention, was calculated as an inhibition rate (%) according to the following equation: Inhibition rate (%)={(AC−AX)/(AC−AB)}×100
wherein AB is a measured value without addition of the enzyme;
AC is a measured value with addition of the enzyme in the absence of a test compound; and
AX is a measured value with addition of the enzyme in the presence of a test compound. […]

Chain of recombinant human p38α MAP kinase (Q16539 whole entry): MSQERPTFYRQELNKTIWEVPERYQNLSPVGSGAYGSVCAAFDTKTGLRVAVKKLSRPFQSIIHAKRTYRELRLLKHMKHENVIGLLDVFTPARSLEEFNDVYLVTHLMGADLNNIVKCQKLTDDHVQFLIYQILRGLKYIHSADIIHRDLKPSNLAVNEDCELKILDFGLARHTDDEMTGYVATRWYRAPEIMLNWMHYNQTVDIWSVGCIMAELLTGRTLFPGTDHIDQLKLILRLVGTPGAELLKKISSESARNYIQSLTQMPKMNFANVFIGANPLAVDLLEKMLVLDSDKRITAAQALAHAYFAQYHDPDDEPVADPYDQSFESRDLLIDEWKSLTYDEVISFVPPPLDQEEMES

SMILES	inhibition against in vivo TNF-α production induced by LPS stimulation ([1]; dose of 10 mg/kg, same experimental model)	IC50 [2]	IC50 [3]	TNF-α production inhibitory activity stronger by a factor than that of the compound disclosed in WO 01/030778 ([1]; comparison in same experimental model (1 mg/kg vs 10 mg/kg))	inhibition against in vivo TNF-α production induced by LPS stimulation ([1]; dose of 1 mg/kg orally, LPS 10 μg/kg i.v. after 2 hours, plasma 90 minutes after LPS)
C[C@H](Nc1cc(-c2sc(C3CCN(C)CC3)nc2-c2ccc(F)cc2)ccn1)c1ccccc1 [compound disclosed in WO 01/030778, 4-[4-(4-fluorophenyl)-2-(1-methyl-4-piperidinyl)-1,3-thiazol-5-yl]-N-[(1S)-1-phenylethyl]-2-pyridinamine, reference compound]	95%	–	–	–	–
CN1CCC(c2nc(-c3ccc(=O)n(-c4c(Cl)cccc4Cl)c3)c(-c3ccc(F)cc3Cl)s2)CC1 [Example 10(2), 5-[5-(2-chloro-4-fluorophenyl)-2-(1-methylpiperidin-4-yl)-1,3-thiazol-4-yl]-1-(2,6-dichlorophenyl)pyridin-2(1H)-one]	–	1.4 nM	1.4 nM	≥ 10	90%
